Experimental data published in patent publication US11648254B2 (Kumquat Biosciences Inc., priority 2021, dated 2023).
Where two headings read alike, the source gives them in different places.

Legend:
[1] = system: NCI-H1975 cells (EGFR T790M L858R); assay: EGFR-SOS cellular inhibition assay (CellTiter-Glo, 3D); format: cell-based; conditions: Homo sapiens
SOS1 = SOS1 (Homo sapiens (Human), UniProt Q07889); assay: Ras-SOS interaction assay (HTRF); format: biochemical
[2] = system: MIA PaCa-2 cells (K-Ras G12C); assay: Ras-SOS cellular growth inhibition assay (CellTiter-Glo, 3D); format: cell-based; conditions: Homo sapiens
Method in brief: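 Growth read by CellTiter-Glo luminescence about 5 days after dosing with 3-fold dilutions (9 points), added one day post-seeding. Cells: MIA PaCa-2, 3D culture on ultra-low-attachment surface, medium DMEM/Ham's F12 plus 10% FCS and 2.5% horse serum; IC50 by four-parameter fit.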

[3] = 120 h, NCI-H1975, 3D proliferation, about 5 days, read-out: Bio-Cell-Prolif-3D (H1975 IC50)
[4] = NCI-H1975, EGFR T790M L858R, read-out: IC50 in inhibiting growth of NCI-H1975 cell line
[5] = K-RasG13D utilized, read-out: IC50 inhibition of SOS
[6] = K-RasG13D, read-out: IC50 value against SOS1
[7] = MIA PaCa-2, 120 h, MIA PaCa-2, 3D proliferation, about 5 days, read-out: Bio-Cell-Prolif-3D (MiaPaca2 IC50)
[8] = MIA PaCa-2, MIA PaCa-2, read-out: IC50 in inhibiting MIA PaCa-2 cell growth

Chain of SOS1 (Q07889 564-1049): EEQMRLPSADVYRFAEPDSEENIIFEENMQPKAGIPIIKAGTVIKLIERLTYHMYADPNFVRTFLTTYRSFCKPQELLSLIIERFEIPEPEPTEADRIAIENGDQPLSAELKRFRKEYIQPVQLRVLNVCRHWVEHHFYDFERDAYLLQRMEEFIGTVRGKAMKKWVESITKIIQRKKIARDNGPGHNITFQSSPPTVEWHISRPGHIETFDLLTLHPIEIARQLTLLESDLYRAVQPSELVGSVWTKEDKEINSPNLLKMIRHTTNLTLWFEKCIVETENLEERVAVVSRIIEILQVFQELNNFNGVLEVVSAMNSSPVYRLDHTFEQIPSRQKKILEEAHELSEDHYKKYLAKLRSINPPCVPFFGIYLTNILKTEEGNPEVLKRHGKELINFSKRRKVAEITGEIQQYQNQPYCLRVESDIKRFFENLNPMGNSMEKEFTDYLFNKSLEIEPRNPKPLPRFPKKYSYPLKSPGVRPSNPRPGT

SMILES | IC50 [1, 3] [nM] | IC50 [1, 4] [nM] | IC50 (SOS1; [5]) [nM] | IC50 (SOS1; [6]) [nM] | IC50 [2, 7] [nM] | IC50 [2, 8] [nM]
Cc1nc(N[C@H](C)c2cccc(C(F)(F)F)c2F)c2cc(C3(C#N)CC3)c(N3CCN(C(C)C)CC3)nc2n1 [Compound 346, (R)-1-(4-((1-(2-fluoro-3-(trifluoromethyl)phenyl)ethyl)amino)-7-(4-isopropylpiperazin-1-yl)-2-methylpyrido[2,3-d]pyrimidin-6-yl)cyclopropane-1-carbonitrile] | ≤ 1000 | < 500 | < 100 | < 50 | ≤ 1000 | < 500
COCCOc1nc2nc(C)nc(N[C@H](C)c3cccc(C(F)F)c3F)c2cc1N1CCN(C(C)C)CC1 [Compound 360, (R)-N-(1-(3-(difluoromethyl)-2-fluorophenyl)ethyl)-6-(4-isopropylpiperazin-1-yl)-7-(2-methoxyethoxy)-2-methylpyrido [2,3-d]pyrimidin-4-amine] | ≤ 1000 | < 500 | < 100 | < 50 | ≤ 1000 | < 500
COc1nc2nc(C)nc(N[C@H](C)c3cccc(C(F)(F)C(C)(C)O)c3F)c2cc1C1CCS(=O)(=O)CC1 [Compound 321, (R)-4-(4-((1-(3-(1,1-difluoro-2-hydroxy-2-methylpropyl)-2-fluorophenyl)ethyl)amino)-7-methoxy-2-methylpyrido[2,3-d]pyrimidin-6-yl)tetrahydro-2H-thiopyran 1,1-dioxide] | ≤ 1000 | < 500 | < 100 | < 50 | ≤ 1000 | –
COc1nc2ncnc(N[C@H](C)c3cccc(C(F)F)c3F)c2cc1C1CCN(C(C)C)CC1 [Compound 189, (R)-N-(1-(3-(difluoromethyl)-2-fluorophenyl)ethyl)-6-(1-isopropylpiperidin-4-yl)-7-methoxypyrido[2,3-d]pyrimidin-4-amine] | ≤ 1000 | – | < 100 | – | 1000 to 10000 | –
COCCOc1nc2nc(C)nc(N[C@H](C)c3cccc(C(F)F)c3F)c2cc1C1(C#N)CC1 [Compound 151, (R)-1-(4-((1-(3-(difluoromethyl)-2-fluorophenyl)ethyl)amino)-7-(2-methoxyethoxy)-2-methylpyrido[2,3-d]pyrimidin-6-yl)cyclopropane-1-carbonitrile] | ≤ 1000 | < 500 | – | < 50 | ≤ 1000 | –
COc1nc2nc(C)nc(N[C@H](C)c3cccc(CC(F)F)c3F)c2cc1N1CCN(C)CC1 [Compound 149, (R)-N-(1-(3-(2,2-difluoroethyl)-2-fluorophenyl)ethyl)-7-methoxy-2-methyl-6-(4-methylpiperazin-1-yl)pyrido[2,3-d] pyrimidin-4-amine] | ≤ 1000 | < 500 | < 100 | < 50 | ≤ 1000 | < 500
COc1nc2ncnc(N[C@H](C)c3cccc(C(F)(F)C4CN(C(C)C)C4)c3F)c2cc1C1CCS(=O)(=O)CC1 [Compound 283, (R)-4-(4-((1-(3-(difluoro(1-isopropylazetidin-3-yl)methyl)-2-fluorophenyl)ethyl)amino)-7-methoxypyrido[2,3-d]pyrimidin-6-yl)tetrahydro-2H-thiopyran-1,1-dioxide] | ≤ 1000 | < 500 | < 100 | – | ≤ 1000 | < 500
COc1nc2nc(C)nc(N[C@H](C)c3cccc(C(C)(F)F)c3F)c2cc1N1CCS(=O)(=O)CC1 [Compound 215, (R)-4-(4-((1-(3-(1,1-difluoroethyl)-2-fluorophenyl)ethyl)amino)-7-methoxy-2-methylpyrido[2,3-d]pyrimidin-6-yl)thiomorpholine 1,1-dioxide] | ≤ 1000 | < 500 | < 100 | < 50 | ≤ 1000 | < 500
COc1nc2nc(C)nc(N[C@H](C)c3cccc(C(F)(F)CO)c3F)c2cc1N1CCN(C(C)C)CC1 [Compound 181, (R)-2,2-difluoro-2-(2-fluoro-3-(1-((6-(4-isopropylpiperazin-1-yl)-7-methoxy-2-methylpyrido[2,3-d]pyrimidin-4-yl)amino)ethyl)phenyl)ethan-1-ol] | ≤ 1000 | < 500 | < 100 | < 50 | ≤ 1000 | < 500
Cc1nc(N[C@H](C)c2cccc(C(F)F)c2F)c2cc(S(=O)(=O)C3CCN(C)CC3)c(C#N)nc2n1 [Compound 341, (R)-4-((1-(3-(difluoromethyl)-2-fluorophenyl)ethyl)amino)-2-methyl-6-((1-methylpiperidin-4-yl)sulfonyl)pyrido[2,3-d] pyrimidine-7-carbonitrile] | ≤ 1000 | < 500 | < 100 | < 50 | ≤ 1000 | < 500
COc1nc2nc(C)nc(N[C@H](C)c3cccc(C(F)F)c3F)c2cc1C1(C#N)CCN(C)CC1 [Compound 128, (R)-4-(4-((1-(3-(difluoromethyl)-2-fluorophenyl)ethyl)amino)-7-methoxy-2-methylpyrido[2,3-d]pyrimidin-6-yl)-1-methylpiperidine-4-carbonitrile] | ≤ 1000 | – | < 100 | < 50 | ≤ 1000 | < 500
CCN1CCC(c2cc3c(N[C@H](C)c4cccc(C(F)(F)F)c4F)nc(C)nc3nc2OC)CC1 [Compound 288, (R)-6-(1-ethylpiperidin-4-yl)-N-(1-(2-fluoro-3-(trifluoromethyl)phenyl)ethyl)-7-methoxy-2-methylpyrido [2,3-d]pyrimidin-4-amine] | ≤ 1000 | < 500 | < 100 | < 50 | ≤ 1000 | < 500
C[C@@H](Nc1ncnc2nc(Cl)c(C3CCS(=O)(=O)CC3)cc12)c1cccc(C(F)(F)F)c1F [Compound 331, (R)-4-(7-chloro-4-((1-(2-fluoro-3-(trifluoromethyl)phenyl)ethyl)amino)pyrido[2,3-d]pyrimidin-6-yl)tetrahydro-2H-thiopyran 1,1-dioxide] | ≤ 1000 | < 500 | < 100 | < 50 | ≤ 1000 | < 500
Cc1c([C@@H](C)Nc2ncnc3nc(Cl)c(C4(C#N)CC4)cc23)cccc1C(F)(F)F [Compound 364, (R)-1-(7-chloro-4-((1-(2-methyl-3-(trifluoromethyl)phenyl)ethyl)amino)pyrido[2,3-d]pyrimidin-6-yl) cyclopropane-1-carbonitrile] | ≤ 1000 | < 500 | 100 to 1000 | – | 1000 to 10000 | –
CCN1CCN(c2cc3c(N[C@H](C)c4cccc(C(F)F)c4F)nc(C)nc3nc2OC2CN(C)C2)CC1 [Compound 254, (R)-N-(1-(3-(difluoromethyl)-2-fluorophenyl)ethyl)-6-(4-ethylpiperazin-1-yl)-2-methyl-7-((1-methylazetidin-3-yl)oxy)pyrido[2,3-d]pyrimidin-4-amine] | 1000 to 10000 | – | < 100 | < 50 | 1000 to 10000 | –
COc1nc2ncnc(N[C@H](C)c3cccc(C(F)(F)C4CCC(N(C)C)CC4)c3F)c2cc1C1CCS(=O)(=O)CC1 (stereo partly drawn) [Compound 289, (R)-4-(4-((1-(3-((4-(dimethylamino)cyclohexyl)difluoromethyl)-2-fluorophenyl)ethyl)amino)-7-methoxypyrido[2,3-d]pyrimidin-6-yl)tetrahydro-2H-thiopyran 1,1-dioxide] | ≤ 1000 | < 500 | < 100 | < 50 | ≤ 1000 | < 500
Cc1nc(N[C@H](C)c2cccc(C(F)F)c2F)c2cc(C3CCS(=O)(=O)CC3)c(NC3COC3)nc2n1 [Compound 401, (R)-4-(4-((1-(3-(difluoromethyl)-2-fluorophenyl)ethyl)amino)-2-methyl-7-(oxetan-3-ylamino)pyrido[2,3-d]pyrimidin-6-yl)tetrahydro-2H-thiopyran 1,1-dioxide] | ≤ 1000 | – | < 100 | < 50 | 1000 to 10000 | –
Cc1nc(N[C@H](C)c2cccc(C(F)(F)F)c2F)c2cc(C3CCS(=O)(=O)CC3)c(OC3CN(C)C3)nc2n1 [Compound 248, (R)-4-(4-((1-(2-fluoro-3-(trifluoromethyl)phenyl)ethyl)amino)-2-methyl-7-((1-methylazetidin-3-yl)oxy)pyrido[2,3-d]pyrimidin-6-yl)tetrahydro-2H-thiopyran 1,1-dioxide] | ≤ 1000 | < 500 | < 100 | < 50 | ≤ 1000 | < 500
COc1nc2nc(C)nc(N[C@H](C)c3cccc(C(F)(F)F)c3F)c2cc1C1CCN(C(C)=O)CC1 [Compound 165, (R)-1-(4-(4-((1-(2-fluoro-3-(trifluoromethyl)phenyl)ethyl)amino)-7-methoxy-2-methylpyrido[2,3-d]pyrimidin-6-yl)piperidin-1-yl)ethan-1-one] | ≤ 1000 | < 500 | < 100 | < 50 | ≤ 1000 | –
Cc1nc(N[C@H](C)c2cccc(C(F)F)c2F)c2cc(C3CCN(C(C)C)CC3)c(OCCN(C)C)nc2n1 [Compound 369, (R)-N-(1-(3-(difluoromethyl)-2-fluorophenyl)ethyl)-7-(2-(dimethylamino)ethoxy)-6-(1-isopropylpiperidin-4-yl)-2-methylpyrido[2,3-d] pyrimidin-4-amine] | ≤ 1000 | – | < 100 | < 50 | 1000 to 10000 | –
